Results taken from ChEMBL document CHEMBL1139247 (Bioorg Med Chem Lett, 2009).

Legend:
[1] = Displacement of [3H]gabapentin from alpha2-delta subunit of voltage gated calcium channel in pig brain membrane; type: cell membranes, Sus scrofa
[2] = Displacement of [3H]leucine from Large neutral amino acids transporter system L in CHO cells; type: cell-based, Cricetulus griseus
[3] = Half life in rat plasma; type: ADME, organism-based
[4] = system: Rattus norvegicus; assay: Reduction in renal clearance in Wistar rat at 3 mg/kg, iv after 5 mins in presence of probenecid relative to control; type: ADME, organism-based; set-up: dose 3 mg/kg, route intravenous; settings: in vivo
[5] = system: Rattus norvegicus; assay: Reduction in renal clearance in Wistar rat at 3 mg/kg, iv after 5 mins in presence of cimetidine relative to control; type: ADME, organism-based; set-up: dose 3 mg/kg, route intravenous; settings: in vivo
[6] = system: Mus musculus; assay: Anticonvulsant activity in DBA/2 mouse assessed as protection from audiogenically-induced tonic seizures at 30 mg/kg, po after 1 hr; type: functional
[7] = system: Mus musculus; assay: Anxiolytic activity in DBA/2 mouse assessed as restoration of punished drinking behavior at 30 mg/kg, po relative to pregabalin; type: functional
[8] = Volume of distribution at steady state in rat; type: ADME, organism-based; settings: in vivo, read-out: Vdss
[9] = Bioavailability in rat; type: ADME, organism-based; settings: in vivo
[10] = Unbound fraction in rat; type: ADME, organism-based; settings: in vivo
[11] = Clearance in rat; type: ADME, organism-based; settings: in vivo
[12] = Plasma concentration in Sprague-Dawley rat at 30 mg/kg, po after 2 hrs; type: ADME, organism-based; set-up: dose 30 mg/kg, route oral
[13] = AUC in rat; type: ADME, organism-based; settings: plasma
[14] = Drug level in Sprague-Dawley rat brain at 30 mg/kg, po after 2 hrs

Cn1c(CC2(CN)CCCCC2)noc1=O showed an IC50 [1] of over 10 µM.
NCC1(Cc2nnn[nH]2)CCCCC1 showed an IC50 [1] of 0.1 µM and an IC50 [2] of over 10000 µM.
C[C@@H]1C[C@H](C)C[C@@](CN)(Cc2noc(=O)[nH]2)C1 gave an IC50 [1] of 0.07 µM.
With Cn1nnnc1CC1(CN)CCCCC1 the IC50 [1] was over 10 µM.
Work on NCC1(Cc2noc(=O)[nH]2)CCCCCCC1 yielded an IC50 [1] of 5.6 µM.
For NCC1(Cc2noc(=O)[nH]2)CCCCC1, the half-life [3] was 1.6 h, the “reduction in CL_renal” value [4] was 57% and the “reduction in CL_renal” value [5] was 35%. For the same molecule, the Activity [6] was 20%, the Activity [7] was 11% and the Vd [8] was 1.25 L/kg. For the same molecule, the bioavailability [9] was 97%, the IC50 [2] was over 10000 µM and the fraction unbound [10] was over 0.9. The clearance [11] was 20.3 mL/min/kg, the concentration at 2 h [12] was 15000 ng/mL and the AUC [13] was 2200 ng·h/mL.
NCC1(Cc2noc(=O)[nH]2)CCCC1 gave an IC50 [1] of 1.14 µM.
With NCC1(CC(=O)O)CCCCC1 [GABAPENTIN] the half-life [3] was 1.5 h, the Activity [6] was 100% and the Activity [7] was 60%. For the same molecule, the IC50 [1] was 0.07 µM and the IC50 [2] was 30 µM.
With C[C@@H]1CCC[C@@](CN)(Cc2noc(=O)[nH]2)C1 the IC50 [1] was 0.084 µM.
With CC(C)CC(CN)Cc1noc(=O)[nH]1 (racemic) the IC50 [1] was 1.5 µM.
In the case of C[C@@H]1C[C@H](C)C[C@](CN)(Cc2noc(=O)[nH]2)C1, the IC50 [1] is reported as over 10 µM.
In the case of NCC1(Cc2noc(=O)[nH]2)CCCCCC1, the IC50 [1] is reported as 0.158 µM.
With CC(C)C[C@H](CN)CC(=O)O [PREGABALIN] the half-life [3] was 2.7 h, the concentration at 2 h [14] was 7360 ng/mL and the Activity [6] was 100%. The Activity [7] was 100%, the Vd [8] was 0.79 L/kg and the bioavailability [9] was 83%. The IC50 [2] was 158 µM, the clearance [11] was 2.9 mL/min/kg and the concentration at 2 h [12] was 25600 ng/mL. It also gave an AUC [13] of 14800 ng·h/mL.
